Reference: patent US20230131334A1, “COMPANION DIAGNOSTIC BIOMARKERS OF EGFR INHIBITOR” (SYNTEKABIO, INC., priority 2020, published 2023)

Test system: A549 cell line
Assay: WST-1 assay of drug responsiveness to pelitinib in A549 with LEPRE1 overexpression or inhibited expression
Assay type: cell-based
Settings: Homo sapiens
Protocol: The expression level of LEPRE1 was identified by Western blot, and a test (WST-1 assay) of drug responsiveness to pelitinib was carried out. […] It was confirmed that LEPRE1 overexpression had the effect of increasing drug sensitivity to pelitinib. […] It was confirmed that the inhibited LEPRE1 expression had the effect of reducing drug sensitivity to pelitinib.
The loss-of-function effect whereby drug sensitivity to pelitinib decreases was confirmed when LEPRE1 expression was inhibited.

- IC50 (A549, A549 overexpressing LEPRE1/pcDNA3.1, then treated with pelitinib): 1030 ± 40.6 nM
- IC50 (A549, A549 overexpressing pcDNA3.1 (empty vector), then treated with pelitinib): 1670 ± 520 nM
- IC50 (A549, A549 transfected with LEPRE1 siRNA (si2293), then treated with pelitinib): 4010 ± 1010 nM
- IC50 (A549, A549 transfected with negative control, then treated with pelitinib): 1730 ± 187 nM
SMILES: CCOc1cc2ncc(C#N)c(Nc3ccc(F)c(Cl)c3)c2cc1NC(=O)/C=C/CN(C)C [pelitinib, Pelitinib]
